In US20030212121A1, “Substituted N-(1,4,5,6-tetrahydro-cyclopentapyrazol-3-yl) derivatives, their production and use as pharmaceutical agents” (priority 2001, published 2003) one finds melting point data, which are given here for eight compounds.

As to `COc1cccc(-c2ccc(CC(=O)Nc3n[nH]c4c3CCC4)cc2)c1` [Example 1.5], the melting point lay in the range of 110 to 114 °C.
Then `O=C(Cc1ccc(-c2ccccc2F)cc1)Nc1n[nH]c2c1CCC2` [Example 1.3], with 179 to 181 °C.
Then `COc1ccccc1-c1ccc(CC(=O)Nc2n[nH]c3c2CCC3)cc1` [Example 1.4], with 150 °C.
`O=C(Cc1ccc(-c2ccc(F)cc2)cc1)Nc1n[nH]c2c1CCC2` [Example 1.2]: the melting point was in the range of 161 to 163 °C.
Then `O=C(Cc1ccc(-c2cccc(F)c2)cc1)Nc1n[nH]c2c1CCC2` [Example 1.0, 2-(3′-Fluoro-biphenyl-4-yl)-N-(1,4,5,6-tetrahydro-cyclopentapyrazol-3-yl)-acetamide], with 180 to 181 °C; and `CC(=O)c1cccc(-c2ccc(CC(=O)Nc3n[nH]c4c3CCC4)cc2)c1` [Example 1.7], with 150 °C.
As for `COc1ccc(-c2ccc(CC(=O)Nc3n[nH]c4c3CCC4)cc2)cc1` [Example 1.6], the figure is 168 to 172 °C.
Then `CC(=O)c1ccc(-c2ccc(CC(=O)Nc3n[nH]c4c3CCC4)cc2)cc1` [Example 1.8], with 112 to 114 °C.

The melting point is the temperature of the solid-liquid transition.
